Test results as given in patent EP1192125B9, “MONO-SUBSTITUTED 3-PROPYL GAMMA-AM[…]” (Warner-Lambert Company LLC, priority 1999, dated 2000).
Where two headings read alike, the source gives them in different places.

Assays:
Format in all cases: in vivo
DBA/2 mice = assay: DBA2 mouse model of anticonvulsant efficacy (sound-induced seizures); parameters: Anticonvulsant % Protect 2 br / Anticonvulsant % Protect 1hr: concentration or dose not given beside the values; conditions: for Anticonvulsant % Protect 2 br / Anticonvulsant % Protect 1hr: Table 1; for responders at 30 mg/kg: Mus musculus
[1] = Anxiolytic activity relative to pregabalin (test model not specified); conditions: 30 mg/kg PO; percent of pregabalin activity
Male Sprague-Dawley rats = assay: Carrageenin-induced hyperalgesia, rat paw pressure test; conditions: dosed orally at 30 mg/kg
Experimental: Male Sprague-Dawley rats (70-90 g) were trained on this apparatus before the test day. Pressure was gradually applied to the hind paw of each rat and nociceptive thresholds were determined as the pressure (g) required to elicit paw withdrawal. […] On the test day, two to three baseline measurements were taken before animals were administered 100 µL of 2% carrageenin by intraplantar injection into the right hind paw.

[2] = 30 mg/kg PO, 1h, read-out: Anticonvulsant % Protect* 1h
[3] = 30 mg/kg PO, 2h, read-out: Anticonvulsant % Protect* 2h

For `CC[C@@H](C)[C@H](CN)CC(=O)O`, the “Anticonvulsant % Protect 2 br” value (DBA/2 mice) was 0% and the “Anticonvulsant % Protect 1hr” value (DBA/2 mice) was 0%.
In the case of `CC(C)[C@@H](C)C(CN)CC(=O)O` (stereo partly drawn), the “Anticonvulsant % Protect 2 br” value (DBA/2 mice) is reported as 100% and the “Anticonvulsant % Protect 1hr” value (DBA/2 mice) is reported as 80%.
With `CCC(CC)C(CN)CC(=O)O` (stereo not drawn) the “Anticonvulsant % Protect 2 br” value (DBA/2 mice) was 20% and the “Anticonvulsant % Protect 1hr” value (DBA/2 mice) was 0%.
In the case of `CCC(CC)CC(CN)CC(=O)O` (stereo not drawn), the “Anticonvulsant % Protect 2 br” value (DBA/2 mice) is reported as 20% and the “Anticonvulsant % Protect 1hr” value (DBA/2 mice) is reported as 0%.
In the case of `CCC(C)CC(CN)CC(=O)O` (stereo not drawn), the “Anticonvulsant % Protect 2 br” value (DBA/2 mice) is reported as 100% and the “Anticonvulsant % Protect 1hr” value (DBA/2 mice) is reported as 60%.
For `CCC(C)CC(CN)CC(=O)O` (racemic) [3-Aminomethyl-5-methylheptanoic acid], the “Anxiolytic Activity* % Preg. Act.” value [1] was 79%, the responders at 30 mg/kg (DBA/2 mice; [2]) was 60% and the responders at 30 mg/kg (DBA/2 mice; [3]) was 100%.
Compound `CC(C)C(c1ccccc1)C(CN)CC(=O)O` (stereo not drawn) [3-Aminomethyl-5-methyl-4-phenyl-hexanoic acid] has a responders at 30 mg/kg (DBA/2 mice; [2]) of 0% and a responders at 30 mg/kg (DBA/2 mice; [3]) of 0%.
For `CC(Cc1ccccc1)CC(CN)CC(=O)O` (stereo not drawn) [3-Aminomethyl-5-methyl-6-phenyl-hexanoic acid], the responders at 30 mg/kg (DBA/2 mice; [2]) was 0% and the responders at 30 mg/kg (DBA/2 mice; [3]) was 0%.
Compound `C=CCC(C)CC(CN)CC(=O)O` (stereo not drawn) [3-Aminomethyl-5-methyl-oct-7-enoic acid] has a responders at 30 mg/kg (DBA/2 mice; [2]) of 0% and a responders at 30 mg/kg (DBA/2 mice; [3]) of 0%.
`CCCCCC(C)CC(CN)CC(=O)O` (stereo not drawn) [3-Aminomethyl-5-methyldecanoic acid, 3-Aminomethyl-5-methyl-decanoic acid] showed a responders at 30 mg/kg (DBA/2 mice; [2]) of 0% and a responders at 30 mg/kg (DBA/2 mice; [3]) of 0%.
For `CCCCC(C)CC(CN)CC(=O)O` (stereo not drawn) [3-Aminomethyl-5-methylnonanoic acid, 3-Aminomethyl-5-methyl-nonanoic acid], the responders at 30 mg/kg (DBA/2 mice; [2]) was 40% and the responders at 30 mg/kg (DBA/2 mice; [3]) was 80%.
`CCCC(C)CC(CN)CC(=O)O` (stereo not drawn) [3-Aminomethyl-5-methyloctanoic acid, 3-Aminomethyl-5-methyl-octanoic acid] showed a responders at 30 mg/kg (DBA/2 mice; [2]) of 40% and a responders at 30 mg/kg (DBA/2 mice; [3]) of 100%.
With `CC(CC(CN)CC(=O)O)C(F)(F)F` (stereo not drawn) [3-Aminomethyl-6,6,6-trifluoro-5-methyl-hexanoic acid] the responders at 30 mg/kg (DBA/2 mice; [2]) was 0% and the responders at 30 mg/kg (DBA/2 mice; [3]) was 0%.
With `CCC(C(C)C)C(CN)CC(=O)O` (stereo not drawn) [3-aminomethyl-4-isopropyl-hexanoic acid, 3-Aminomethyl-4-isopropyl-hexanoic acid] the responders at 30 mg/kg (DBA/2 mice; [2]) was 0% and the responders at 30 mg/kg (DBA/2 mice; [3]) was 0%.
For `CCCCC(C(C)C)C(CN)CC(=O)O` (stereo not drawn) [3-aminomethyl-4-isopropyl-octanoic acid, 3-Aminomethyl-4-isopropyl-octanoic acid], the responders at 30 mg/kg (DBA/2 mice; [2]) was 0% and the responders at 30 mg/kg (DBA/2 mice; [3]) was 0%.
For `CC(C)[C@@H](C)[C@H](CN)CC(=O)O` [(3R,4R)-3-Aminomethyl-4,5-dimethyl-hexanoic acid], the “Anxiolytic Activity* % Preg. Act.” value [1] was 204%.
With `CC(C)[C@H](C)[C@H](CN)CC(=O)O` [(3R,4S)-3-Aminomethyl-4,5-dimethyl-hexanoic acid] the “Anxiolytic Activity* % Preg. Act.” value [1] was 58%.
In the case of `CC(C)[C@@H](C)[C@@H](CN)CC(=O)O` [(3S,4R)3-Aminomethyl-4,5-dimethyl-hexanoic acid], the “Anxiolytic Activity* % Preg. Act.” value [1] is reported as 12%, the “Anticonvulsant % Protect* 1h” value (DBA/2 mice; 30 mg/kg PO, 1h) is reported as 20% and the “Anticonvulsant % Protect* 2h” value (DBA/2 mice; 30 mg/kg PO, 2h) is reported as 20%.
For `CCCCC[C@@H](C)C[C@H](CN)CC(=O)O` [(3S,5R)-3-Aminomethyl-5-methyl-decanoic acid], the “Anxiolytic Activity* % Preg. Act.” value [1] was 105.59%, the responders at 30 mg/kg (DBA/2 mice; [2]) was 100% and the responders at 30 mg/kg (DBA/2 mice; [3]) was 100%.
In the case of `CC[C@@H](C)C[C@H](CN)CC(=O)O` [(3S,5R)-3-Aminomethyl-5-methyl-heptanoic acid], the “Anticonvulsant % Protect* 2h” value (DBA/2 mice; 30 mg/kg PO, 2h) is reported as 100%.
For `CCCC[C@@H](C)C[C@H](CN)CC(=O)O.Cl` [(3S,5R)-3-Aminomethyl-5-methyl-nonanoic acid hydrochloride], the “Anxiolytic Activity* % Preg. Act.” value [1] was 125.94%, the responders at 30 mg/kg (DBA/2 mice; [2]) was 100% and the responders at 30 mg/kg (DBA/2 mice; [3]) was 100%.
With `CCC[C@@H](C)C[C@H](CN)CC(=O)O.Cl` [(3S,5R)-3-Aminomethyl-5-methyl-octanoic acid hydrochloride] the “Anxiolytic Activity* % Preg. Act.” value [1] was 160%, the responders at 30 mg/kg (DBA/2 mice; [2]) was 100% and the responders at 30 mg/kg (DBA/2 mice; [3]) was 100%.
Compound `CCCCC[C@H](C)C[C@H](CN)CC(=O)O` [(3S,5S)-3-Aminomethyl-5-methyl-decanoic acid] has a responders at 30 mg/kg (DBA/2 mice; [2]) of 0% and a responders at 30 mg/kg (DBA/2 mice; [3]) of 20%.
For `CCC[C@H](C)C[C@H](CN)CC(=O)O` [(3S,5S)-3-Aminomethyl-5-methyl-octanoic acid], the “Anxiolytic Activity* % Preg. Act.” value [1] was 15.6%, the responders at 30 mg/kg (DBA/2 mice; [2]) was 0% and the responders at 30 mg/kg (DBA/2 mice; [3]) was 20%.
With `CCCC[C@H](C)C[C@H](CN)CC(=O)O` [(3S, 5S)-3-Aminomethyl-5-methyl-nonanoic acid] the responders at 30 mg/kg (DBA/2 mice; [2]) was 0% and the responders at 30 mg/kg (DBA/2 mice; [3]) was 0%.
With `Cl.O=C(O)[C@H]1CNCC12CCCCC2` [(R)-2-Aza-spiro[4.5]decane-4-carboxylic acid hydrochloride] the “percent of maximum possible effect (MPE)” value (Male Sprague-Dawley rats; 1 hour postdose) was 53% and the “percent of maximum possible effect (MPE)” value (Male Sprague-Dawley rats; 2 hours postdose) was 4.6%.
With `CCCC(C)C[C@H](CN)CC(=O)O` (stereo partly drawn) [(S)-3-Aminomethyl-5-methyl-octanoic acid] the “Anxiolytic Activity* % Preg. Act.” value [1] was 135.38%, the responders at 30 mg/kg (DBA/2 mice; [2]) was 100% and the responders at 30 mg/kg (DBA/2 mice; [3]) was 100%.
Work on `COCC(C)C[C@H](CN)CC(=O)O` (stereo partly drawn) [(S)-3-Aminomethyl-6-methoxy-5-methyl-hexanoic acid] yielded a responders at 30 mg/kg (DBA/2 mice; [2]) of 0% and a responders at 30 mg/kg (DBA/2 mice; [3]) of 0%.
In the case of `CC(C)C[C@H](CN)CC(=O)O` [Pregabalin, (S)-3-(Aminomethyl)-5-methylhexanoic acid, reference compound], the “Anxiolytic Activity* % Preg. Act.” value [1] is reported as 100% and the responders at 30 mg/kg (DBA/2 mice; [3]) is reported as 100%.
In the case of `CC(C)CC(CN)CC(=O)O` (stereo not drawn) [reference compound], the “Anticonvulsant % Protect 2 br” value (DBA/2 mice) is reported as 100%.
